Legend:
alternative pathway = experiment: Alternative pathway-specific ELISA (LPS, 20% serum, C3b detection); type: biochemical, human; settings: single dose 500 µM, triplicate
Experimental: Figure 5 Selectivity and mechanistic analysis of CMP-1611 and CMP-1696. (A) Chemical structure of CMP-1611. (B) Chemical structure of CMP-1696. (C) Dose-dependent inhibition by CMP-1611 and CMP-1696 in a classical pathway-specific ELISA. Data were fit with GraphPad Prism using non-linear regression with a log(inhibitor) vs. response model. […] (D) Complement pathway selectivity of CMP-1611 and CMP-1696. Compounds were assessed for their ability to inhibit activation of complement via the lectin and alternative pathways using single doses of 500 µM compound in triplicate. To ensure only lectin pathway activation, 2% (v/v) C1q-depleted serum (CompTech) was used and mannan was used as the activator. To match serum sources and amounts for this assay, the classical pathway assays were repeated here using serum from CompTech at 2% (v/v) final concentration. Alternative pathway activation assays were performed using 20% (v/v) serum (CompTech), alternative pathway buffers, and C3b detection (see Methods and Materials for details). […]
To carry out classical pathway ELISA-based inhibition assays, IgM was dissolved in coating buffer (100 mM Na2CO3/NaHCO3, pH 9.6) to a final concentration of 3 µg/mL and was dispensed into 96-well plates at 100 µL per well. […] The reaction was stopped with 50 µL of 0.16 M sulfuric acid, and the plate was read at 450 nm using an EnSight multimode plate reader (Perkin-Elmer). […]

C1r = test system: C1r; design: method as in PMID 10206542; settings: cited from earlier work

CN(C)c1cc(N2CCCC(N)C2)ncn1 (centres unmarked) [CMP-1611]
inhibition of alternative pathway activation (alternative pathway): no effect

N=C(N)c1ccc2cc(OC(=O)c3ccc(N=C(N)N)cc3)ccc2c1 [Futhan, reference compound]
inhibition of C1r (C1r): previously reported to inhibit C1r

— publication PMC7504721, “Targeting the Initiator Protease of the Classical Pathway of Complement Using Fragment-Based Drug Discovery” (Molecules, 2020)
